This note sets out measurements from BindingDB's records for PubMed 2894455 (University of Missouri, 1988).

Values joined by “and” are separate entries in the source; they are usually repeats but may differ in a detail not shown here. Identical values can stand only once.

This assay has as its target T1, Alpha-2B adrenergic receptor (Didelphis virginiana, UniProt O77715).
T1 sequence (O77715 whole entry): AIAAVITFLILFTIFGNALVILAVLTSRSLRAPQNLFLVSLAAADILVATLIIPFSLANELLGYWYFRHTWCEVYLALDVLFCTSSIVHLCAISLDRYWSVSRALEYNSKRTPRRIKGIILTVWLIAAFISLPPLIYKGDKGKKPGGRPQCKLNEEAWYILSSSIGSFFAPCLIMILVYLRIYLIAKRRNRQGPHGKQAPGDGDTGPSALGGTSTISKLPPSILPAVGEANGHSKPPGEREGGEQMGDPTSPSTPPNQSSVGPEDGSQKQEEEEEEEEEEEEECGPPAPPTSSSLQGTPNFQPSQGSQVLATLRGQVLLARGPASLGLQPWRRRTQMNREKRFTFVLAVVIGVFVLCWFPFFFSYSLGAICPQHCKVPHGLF
`Clc1cccc(Cl)c1N=C1NCCN1` [2-(2,6-dichloroanilino)-2-imidazoline] had an inhibition constant (Ki) of 14 nM.
`O=C(c1ccc(F)cc1)C1CCN(CCn2c(=O)[nH]c3ccccc3c2=O)CC1` [3-(2-{4-[(4-fluorophenyl)carbonyl]piperidin-1-yl}ethyl)-1,2,3,4-tetrahydroquinazoline-2,4-dione] gave a Ki of 143 nM.
`CNCC(O)c1ccc(O)c(O)c1` (centres undefined) [EPINEPHRINE] showed a Ki of 31 nM.
Next, `COc1cccc(OC)c1OCCNCC1Oc2ccccc2OC1c1ccccc1` (centres undefined) [NSC_185453]: 0.27 nM; `NCC(O)c1ccc(O)c(O)c1` (stereo not drawn) [Noradrenaline,(+)]: 122 nM; `Cc1ccc(N(CC2=NCCN2)c2cccc(O)c2)cc1` [SMR000059054]: 5.6 nM.
Next, `Cc1cc(C(C)(C)C)c(O)c(C)c1CC1=NCCN1` [SMR000059324]: 10 nM; `Brc1c(NC2=NCCN2)ccc2nccnc12` [UK 14,304]: 22 nM.
Take `COc1cc2nc(N3CCN(C(=O)c4ccco4)CC3)nc(N)c2cc1OC` [[3H]-Minipress]: the Ki is 7.4 nM and 7.6 nM.
